Several values for one entry are separate records, joined by “and”; a condition that tells them apart may be missing. Equal values may be shown once. Entries after “also recorded” stand apart in the source; their conditions may differ. Non-standard residues stand in square brackets, D forms with d. Residues, ends and D or L forms follow the SMILES beside them. ξ: configuration not given here. *: point of attachment. Benzoyl(2,6-F2) = O=C(c1c(F)cccc1F)*; Benzoyl(4-F) = O=C(c1ccc(F)cc1)*; ξR = N=C(N)NCCCC(N)C(=O)O; Nle = CCCC[C@H](N)C(=O)O; Bz = O=C(c1ccccc1)*; CF3 = FC(F)(F)*
Key:
DENV2 NS2B:NS3pro [1] = biological target: T1, DENV2 NS2B:NS3pro (Dengue virus type 2, UniProt P29990); assay: Biochemical protease activity assay, fluorogenic AMC substrate; set-up: species or system serotype II Dengue virus (DENV2); details: 50 mM HEPES pH 7.4, 150 mM NaCl, 10% ethylene glycol, 0.05% BSA, 0.0016% Brij-58; 80 nM enzyme; 20 μM Bz-nle-Lys-Arg-Arg-AMC; fluorescence 390/460 nm every 30 s for 30 min; three parameter IC50 fit
T1 construct: DENV2 NS3pro (1–185; amino acids 1476–1660 of the polyprotein); NS2B (containing amino acids 1394–1440 of the Dengue 2 polyprotein); His tag; made in house; host or cells: Escherichia coli BL21Star (DE3)
Description: Activity assays were carried out on a 96-well plate (white Cliniplate, Thermo Fisher Scientific Oy, Vantaa, Finland) in 50 mM HEPES, pH 7.4, 150 mM NaCl, 10% ethylene glycol, 0.05% BSA, 0.0016% Brij-58 with 80 nM enzyme using 20 μM Bz-nle-Lys-Arg-Arg-AMC (Bachem, Bubendorf, Switzerland) as substrate. Reagents were from Sigma (St. Louis, MO, USA) unless otherwise stated.
5 μl of 200 μM substrate in buffer and 2.5 μl of compound in DMSO or DMSO control were added to the plate. 42.5 μl of […] enzyme in buffer was added to start the reaction. Fluorescence was read every 30 s for 30 min at 390 nm excitation and 460 nm emission in a Fluorskan Ascent plate reader (Thermo Fisher Scientific Oy, Vantaa, Finland). Rates were fitted in the Ascent software and exported as Excel files. The rates were imported into GraphPad Prism (GraphPad Software Inc., La Jolla, CA, USA) and fitted to the standard three parameter IC50 equation.

DENV2 NS2B:NS3pro [2] = biological target: T1, DENV2 NS2B:NS3pro; assay: 19F NMR monitoring of inhibitor binding to wild-type NS2B:NS3pro; set-up: species or system serotype II Dengue virus (DENV2); details: 298 K
From the text: The subside part of peptide types of inhibitors either improves or prevents correct binding with the enzyme in the most favourable way. One way to probe stereo-selectivity in enzymes is to study an inhibitor with the wrong stereochemistry around the carbon, Cα, of the P1 (Arg) (for abbreviation see Table 1). The key question is: could both isomers bind to NS2B:NS3pro complex? If yes, is there any difference in affinity between them. To challenge these questions two separated diastereomers of Ph-Bz-Lys-Lys-Arg-CF3-ketone (III) (Table 1) with low affinity were used to observe the binding. The isolated diastereomers were kept in solution with and without the NS2B/NS3 complex for two months with measuring at several points. For the first separated isomer (IIIa), only one ^19F resonance is observed at − 82.83 ppm in the unbound state (Fig. 1a). […]
(§1) NMR experiments were acquired on Bruker Avance III spectrometers operating at 14.1 and 16.4 T at a temperature of 298 K. 2D ^1H-^15N TROSY -transverse relaxation optimized spectroscopy (TROSY) was used. ^19F experiments were acquired on a Bruker Avance III 16.4 T equipped with a QCIF CryoProbe, and internally referenced to the trifluoromethyl acetate counter ion (− 76.55 ppm). […] Protein detected experiments with ligand bound used a chemical shift perturbation (CSP) analysis was performed manually in CcpNmr Analysis 2.2.2 [60]. […]

DENV2 NS2B:NS3pro [3] = biological target: T1, DENV2 NS2B:NS3pro; details: earlier NMR study; cited from earlier work
From the text: The unusual large low-filed shift of N^δ1H (19.93 ppm) of H51 combined with a N-H splitting of only 52 Hz clearly indicated the ...

NS2B:NS3pro (S135A) = assay: 19F and 1H-15N TROSY NMR binding to S135A mutant; set-up: species or system serotype II Dengue virus (DENV2); details: 1H-15N TROSY and 19F NMR
From the text: (§2) Reagents were from Sigma (St. Louis, MO, USA) unless otherwise stated. DENV2 NS3pro (1–185; amino acids 1476–1660 of the polyprotein) and NS2B (containing amino acids 1394–1440 of the Dengue 2 polyprotein) constructs were generated as described. H51N and S135A mutations of active site residues were introduced using the QuikChange Lightning kit (Agilent); a double H51N/S135A mutant was generated sequentially. All sequences were confirmed by Sanger sequencing. NS2B and NS3pro were expressed separately in Escherichia coli expression strain BL21Star (DE3) (Life Technologies) as described. Proteins were expressed in Terrific Broth medium (MP Biomedicals) for unlabelled protein or in different isotopic labelling combinations in ^1/2H, ^15N, ^12/13C-labelled M9 medium for labelled protein [54]. […]
as §1

DENV2 NS2B:NS3pro [4] = biological target: T1, DENV2 NS2B:NS3pro; assay: 19F NMR solvent isotope shift (H2O vs D2O), water accessibility of NS2B:NS3pro complex; set-up: species or system serotype II Dengue virus (DENV2); details: inhibitor bound to DENV2 NS2B:NS3pro
Description: The accessibility of water in the binding site of the complex with bound inhibitor was tested by studying the ^19F spectra of the complexes NS2B:NS3pro (II) in two different solvents: H2O and D2O (Fig. S2). […] This CSP was scaled versus the signals of the same group of the unbound ligand, ca 48 Hz (Fig. S2c). The conclusion is that ^19F nuclei of the benzene ring of the bound inhibitor are partly exposed to the solvent even in the bound state.
The NS2B:NS3pro complex was concentrated in disposable centrifugal concentrators (e.g. Amicon Ultra centrifugal filter units) with a molecular weight cut-off of 10 kDa. The complex was stable during concentration and no leakage of NS2B occurred. Buffer was exchanged using gravity flow desalting columns (GE Healthcare). The NMR buffer contained 20 mM deuterated MES, 100 mM NaCl, 5 mM CaCl2, 0.02% NaN3, at pH 6.5. […]
as §1

DENV2 NS2B:NS3pro [5] = biological target: T1, DENV2 NS2B:NS3pro; assay: Low field 1D 1H NMR of NS2B:NS3pro complexes (LBHB, H51-D75); type: binding, serotype II Dengue virus (DENV2)
Description: The NS2B:NS3pro complex was concentrated in disposable centrifugal concentrators (e.g. Amicon Ultra centrifugal filter units) with a molecular weight cut-off of 10 kDa. The complex was stable during concentration and no leakage of NS2B occurred. Buffer was exchanged using gravity flow desalting columns (GE Healthcare). […] The buffer-exchanged protein was concentrated to at least 0.3 mM. To obtain spectra in D2O buffer protein complex with inhibitor was lyophilized and dissolved adding only D2O water.
(§3) NMR experiments were acquired on Bruker Avance III spectrometers operating at 14.1 and 16.4 T at a temperature of 298 K. 2D ^1H-^15N TROSY -transverse relaxation optimized spectroscopy (TROSY) was used. ^19F experiments were acquired on a Bruker Avance III 16.4 T equipped with a QCIF CryoProbe, and internally referenced to the trifluoromethyl acetate counter ion (− 76.55 ppm). For solvent isotope shift measurements the buffer was exchanged from 90% H2O to 90% D2O using centrifugation filters by following dilution of the sample till starting concentration. The consistency of the procedure has been tested through comparison of the ^1H-^15N spectra before and after buffer exchange back to starting condition. There was no major structural perturbations resulted from exchange into deuterated buffer conditions. Protein detected experiments with ligand bound used a chemical shift perturbation (CSP) analysis was performed manually in CcpNmr Analysis 2.2.2 [60]. CSP was defined as the distance between two cross peaks in Hz, obtained as the square root of the sum of quadratic using DANGLE [61].

NS2B:NS3pro (H51N) = assay: 19F and 1H-15N TROSY NMR binding to H51N mutant; set-up: species or system serotype II Dengue virus (DENV2); details: 1H-15N TROSY and 19F NMR, same protein:inhibitor ratio as wild type
From the text: as §2, §1

DENV2 NS2B:NS3pro [6] = biological target: T1, DENV2 NS2B:NS3pro; assay: 1H-15N TROSY chemical shifts/CSP, oxyanion hole and H51 of NS2B:NS3pro complexes; type: binding, serotype II Dengue virus (DENV2)
Description: The NS2B:NS3pro complex was concentrated in disposable centrifugal concentrators (e.g. Amicon Ultra centrifugal filter units) with a molecular weight cut-off of 10 kDa. The complex was stable during concentration and no leakage of NS2B occurred. Buffer was exchanged using gravity flow desalting columns (GE Healthcare). The NMR buffer contained 20 mM deuterated MES, 100 mM NaCl, 5 mM CaCl2, 0.02% NaN3, at pH 6.5. The buffer-exchanged protein was concentrated to at least 0.3 mM. To obtain spectra in D2O buffer protein complex with inhibitor was lyophilized and dissolved adding only D2O water.
as §3
Backbone resonance assignment of the NS2B:NS3pro with tetra peptide boronic acid (I) was performed as described previously by us with depositing to the BioMagResBank with accession code 26996 [10, 62], and compared with published earlier for the same inhibitor complex but with the linked construct Dengue I NS2B:NS3pro (BioMagResBank with accession code 19305). Backbone resonance assignment have been done in the same manner for the complex NS2B:NS3pro with the tetra peptide tfk ligand (II) as well and will be published elsewhere. Partial assignments of the ^1H and ^15N resonances presented in this publication of the apo form NS2B:NS3pro and its mutants in complex with inhibitors observed to the uncrowded area of the ^1H-^15N spectra are made by the extrapolation of corresponding cross peaks to the closest one known amino acids using CCPN program tool. […]

Compound: CCCC[C@H](NC(=O)c1c(F)cccc1F)C(=O)N[C@@H](CCCCN)C(=O)N[C@@H](CCCNC(=N)N)C(=O)NC(CCCNC(=N)N)C(=O)C(F)(F)F (stereo partly drawn) [II, N-((9S,12S,15S)-1-amino-12-(4-aminobutyl)-9-(3-guanidinopropyl)-1-imino-8,11,14-trioxo-6-(2,2,2-trifluoroacetyl)-2,7,10,13-tetraazanonadecan-15-yl)-2,6-difluorobenzamide] ({Benzoyl(2,6-F2)}-[Nle]KR[ξR]-CF3)
- IC50 (DENV2 NS2B:NS3pro [1]): 19 µM

Compound: CCCC[C@H](NC(=O)c1ccc(F)cc1)C(=O)N[C@@H](CCCCN)C(=O)N[C@@H](CCCNC(=N)N)C(=O)NC(CCCNC(=N)N)C(=O)C(F)(F)F (stereo partly drawn) [V, N-((9S,12S,15S)-1-amino-12-(4-aminobutyl)-9-(3-guanidinopropyl)-1-imino-8,11,14-trioxo-6-(2,2,2-trifluoroacetyl)-2,7,10,13-tetraazanonadecan-15-yl)-4-fluorobenzamide] ({Benzoyl(4-F)}-[Nle]KR[ξR]-CF3)
- IC50 (DENV2 NS2B:NS3pro [1]): 24 µM

Compound: CCCC[C@H](NC(=O)c1ccccc1)C(=O)N[C@@H](CCCCN)C(=O)N[C@@H](CCCNC(=N)N)C(=O)NC(CCCNC(=N)N)C(=O)C(F)(F)F (stereo partly drawn) [IV, N-((9S,12S,15S)-1-amino-12-(4-aminobutyl)-9-(3-guanidinopropyl)-1-imino-8,11,14-trioxo-6-(2,2,2-trifluoroacetyl)-2,7,10,13-tetraazanonadecan-15-yl)benzamide] (Bz-[Nle]KR[ξR]-CF3)
- IC50 (DENV2 NS2B:NS3pro [1]): 11 µM

Compound: Bz-Nle-Lys-Arg-Arg-CF3-ketone [IVa, isomer IVa of (IV), free 19F at − 82.82 ppm]
- Binding to NS2B:NS3pro / affinity in words (NMR) (DENV2 NS2B:NS3pro [2]): the signal of only one isomer (IVa) re-appeared

Compound: CCCC[C@H](NC(=O)c1ccccc1)C(=O)N[C@@H](CCCCN)C(=O)N[C@@H](CCCNC(=N)N)C(=O)N[C@@H](CCCNC(=N)N)B(O)O [I, ((3S,6S,9S,12R)-17-amino-6-(4-aminobutyl)-3-butyl-9-(3-guanidinopropyl)-17-imino-1,4,7,10-tetraoxo-1-phenyl-2,5,8,11,16-pentaazaheptadecan-12-yl)boronic acid]
- N-H splitting of Nδ1H of H51 (DENV2 NS2B:NS3pro [3]): 52 Hz
- NδH shift of H51 in complex (DENV2 NS2B:NS3pro [3]): 19.93 ppm
- Binding to S135A mutant (NS2B:NS3pro (S135A)): do not interact with the S135A mutant; also recorded: no binding was observed; also recorded: complete absence of any binding
- Bulk water access to active site (DENV2 NS2B:NS3pro [4]): bulk water is excluded from the active site
- Binding to NS2B:NS3pro / affinity in words (NMR) (DENV2 NS2B:NS3pro [2]): the former has higher affinity than the latter
- Decrease of Nδ1H one-bond coupling vs commonly reported serine proteases (DENV2 NS2B:NS3pro [5]; commonly 87-95 Hz): about 38 Hz
- One bond JNH of Nδ1H H51, 19.93 ppm signal (DENV2 NS2B:NS3pro [5]; first tautomer): 52+/− 2 Hz and 52 Hz
- One bond JNH of Nε2H H51 (DENV2 NS2B:NS3pro [5]; first tautomer): 90+/− 2 Hz and 90 Hz
- Nδ1H of H51, second tautomer, 1H chemical shift (DENV2 NS2B:NS3pro [5]; most persistent signal, pH 8.5 Tris): 19.77 ppm and 19.772 ppm
- pH dependence of low field 1H chemical shift (DENV2 NS2B:NS3pro [5]; pH 5.5 to 8.5): None of the signals in this region shift between pH 5.5 and 8.5
- Nδ1H of H51, first tautomer, 1H chemical shift (DENV2 NS2B:NS3pro [5]; pH 6.0 MES, not always observed): 19.93 ppm and 19.933 ppm
- One bond JNH of Nδ1H H51, 19.77 ppm signal (DENV2 NS2B:NS3pro [5]; second tautomer): 52+/− 2 Hz and 52 Hz
- Affinity / complex formation with H51N mutant (NS2B:NS3pro (H51N)): saturation of the protease and inhibitor complex could not be reached
- H51-HN 1H chemical shift in complex (DENV2 NS2B:NS3pro [6]; apo 10.56 and 10.18 ppm): 10.03 ppm
- H51-HN 15N chemical shift in complex (DENV2 NS2B:NS3pro [6]; apo 114.44 and 114.37 ppm): 113.50 ppm
- Amide CSP of the oxyanion hole (DENV2 NS2B:NS3pro [6]; complex vs apo form): ~0.3 ppm
- Interaction with oxyanion hole (DENV2 NS2B:NS3pro [6]; complex with NS2B:NS3pro): we did not observe interaction of G133 in the oxyanion hole; also recorded: no interaction with the oxyanion hole
